Test results taken from PMC3457943, “Inhibition of poly(ADP-ribose) Polymerase Interferes with Trypanosoma cruzi Infection and Proliferation of the Parasite” (PLoS ONE, 2012).
Read-outs that look alike come from different tables or passages of the source.

Tests used:
T. cruzi epimastigotes [1] = experiment: Epimastigote growth inhibition assay (OD 600 nm); format: cell-based, Trypanosoma cruzi
Protocol: T. cruzi epimastigotes were grown in LIT complete medium for 4 days up to a parasite density of 10^7 parasites/ml. The culture was placed in 96-well sterile plates in 100 µl aliquots and PARP inhibitors were added. Nifurtimox and β-lapachone were used as control compounds. DMSO control was used at 1% v/v concentration. Optical density of the cultures was determined at 600 nm each day for four days to follow parasite growth. Controls for LIT growth medium bearing no parasites were also performed. In all experiments performed, conditions were tested in triplicates. Significance of the results were analysed with one-way ANOVA using GraphPad Prism version 5.03 for Windows (GraphPad Software).

TcPARP [2] = molecular target: TcPARP (Trypanosoma cruzi, UniProt Q4PQV7); experiment: Homogeneous fluorometric TcPARP activity assay (remaining NAD+); format: biochemical; settings: 10 nM TcPARP, 500 nM NAD+
Protocol: (§1) Enzymatic activity was measured using a fluorometric assay, which quantifies the remaining NAD^+ after the enzymatic reaction, [10]. Briefly, TcPARP was incubated with 500 nM NAD^+ in a 96-well U-bottom black propylene plate (Greiner BioOne) in a final volume of 50 µl. The reaction was carried out at 25°C with shaking at 300 rpm using PST-60 HL plus Thermo Shaker (Biosan, Riga, Latvia). The reaction was terminated by the addition of 20 µl of 2 M KOH and 20 µl of 20% acetophenone in ethanol, and plate was incubated at room temperature for 10 minutes. Next, 90 µl of 88% formic acid was added and the plate was incubated at room temperature for 20 minutes. The fluorescence was measured on a Fluoroskan Ascent FL (Thermo Labsystems, Waltham, MA) using excitation at 355 nm and emission at 460 nm. The activity assay was optimized for TcPARP by assaying the effect of pH, DNA concentration, and various additives for the activity of the protein.
(§2) A small in-house library of known PARP inhibitors was screened to evaluate their inhibitory effect against TcPARP. The inhibitor stock solutions were prepared at 10 mM in 100% DMSO and stored at −20°C, except in the case of 3-aminobenzamide, which was prepared at a stock concentration of 1 M in 100% DMSO. The compounds were screened in duplicates at 10 µM and 1 µM concentrations with separate controls for each including only NAD^+ and the compound, but not TcPARP. The protein concentration in the reactions was 10 nM.
(§3) The IC50 value for the first generation PARP inhibitor 3-AB was determined as a reference value. The separate data points were measured in quadruplicates. […] The fluorescence signal was converted to inhibition percentage and fitted using sigmoidal dose-response fitting with variable slope (Graphpad Prism). The curves were extrapolated to 0% and 100% of inhibition by setting their inhibitor concentration 2 log units below or above the first and the last inhibitor concentration, respectively.

[3] = system: Trypanosoma cruzi infection of Vero cells; experiment: Trypanosoma cruzi infection of Vero cells; format: cell-based
Protocol: (§4) Vero cells were cultured in D-MEM medium (Gibco), supplemented with 2 mM L-glutamine, 10% (v/v) FCS, 100 U/ml penicillin and 100 mg/l streptomycin. The wild type (Sigma-Aldrich) and PARP silenced (sh_PARP) pulmonary adenocarcinoma A549 cell lines were provided by Dr. Virág and Dr. Erdélyi, from the University of Debrecen, Hungary. A549 cells were grown in RPMI-1640 medium (Gibco), supplemented with 2 mM L-glutamine, 1 mM Sodium Pyruvate, 10% (v/v) FCS, 100 U/ml penicillin and 100 mg/l streptomycin.
Trypomastigotes were collected by centrifugation of the supernatant of previously infected cultures at 1500×g at room temperature for 7 minutes and incubated for 3 hours at 37°C in order to allow the trypomastigotes to move from the pellet into the supernatant. After this period, the supernatant was collected and trypomastigotes were counted in a Neubauer chamber. […] For this, 50 trypomastigotes/cell were added to the medium of 24 hour-old monolayers and incubated for 24 hours at 37°C, after which they were removed by changing the cell culture medium. Infections were performed in the media above indicated, but supplemented with 3% (v/v) FCS.
The infection was allowed to proceed and growth medium was changed periodically during the first 5 days. […] At the indicated days, cells were fixed and stained by May Grünwald Giemsa technique. Cells were visualized using an Olympus BX41 microscope. Amastigotes and cells were counted using the ImageJ software in at least 7 microscopic fields. […] Alternatively, trypomastigotes in the supernatant of the cell cultures were counted without prior fixation on a Neubauer Chamber at the indicated days. All experiments were performed in triplicates. Significance of the results were analysed with two-way ANOVA using GraphPad Prism version 5.03 for Windows (GraphPad Software).

Vero cells = experiment: Growth of uninfected Vero cells; format: cell-based; settings: presence or absence of Olaparib
[4] = system: Trypanosoma cruzi infection of A549 wild type cells; experiment: Trypanosoma cruzi infection of A549 cells; format: cell-based; settings: 25 nM
Protocol: as §4
Trypomastigotes were collected by centrifugation of the supernatant of previously infected cultures at 1500×g at room temperature for 7 minutes and incubated for 3 hours at 37°C in order to allow the trypomastigotes to move from the pellet into the supernatant. After this period, the supernatant was collected and trypomastigotes were counted in a Neubauer chamber. […]
The infection was allowed to proceed and growth medium was changed periodically during the first 5 days. […] Amastigotes and cells were counted using the ImageJ software in at least 7 microscopic fields. […] Alternatively, trypomastigotes in the supernatant of the cell cultures were counted without prior fixation on a Neubauer Chamber at the indicated days. […] Significance of the results were analysed with two-way ANOVA using GraphPad Prism version 5.03 for Windows (GraphPad Software).

hPARP-1 = settings: cited from earlier work
T. cruzi epimastigotes [5] = system: T. cruzi epimastigotes; design: method as in PMID 17936287; settings: millimolar concentrations; cited from earlier work
T. cruzi amastigotes = system: T. cruzi amastigotes; design: method as in PMID 6330132; settings: millimolar concentrations, mainly axenic amastigote cultures; cited from earlier work
TcPARP [6] = experiment: Homogeneous fluorometric TcPARP activity assay (remaining NAD+); format: biochemical, Trypanosoma cruzi; settings: TcPARP IC50 versus literature hPARP-1 IC50
Protocol: as §1, §2, §3

[7] = system: pADPr formation in T. cruzi epimastigotes; experiment: In vivo inhibition of pADPr formation in epimastigotes challenged with hydrogen peroxide (Western blot); format: cell-based, Trypanosoma cruzi; settings: 30 min pre-incubation, 300 µM hydrogen peroxide 10 min
Protocol: Cell viability was assessed by direct microscopic examination.
Trypanosoma cruzi epimastigotes were grown in LIT complete medium for 4 days up to a parasite density of 10^7 parasites/ml. Parasites were collected by centrifugation at 750×g for 5 minutes and resuspended in PBS-Glucose 2%. T. cruzi epimastigotes were pre-incubated in the presence of inhibitors for 30 minutes and treated with 300 µM hydrogen peroxide for 10 minutes. Cells were harvested by centrifugation at 1500×g, washed with PBS and resuspended in lysis buffer (50 mM Tris–HCl pH 8.0, 1.0 mM EDTA, 10% (v/v) glycerol, 10 mM 2-mercaptoethanol). Protease inhibitors 1 µg/mL trans-epoxysuccinyl-L-leucylamido(4-guanidino) butane (E-64), […], 1 mM phenylmethylsulfonylfluoride (PMSF), and 0.1 mM Na-tosyl-L-lysine chloro-methyl ketone (TLCK) and inhibitor 3-AB (1 mM) were added. Cells were lysed with an Ultrasonic Processor Model W385 Sonicator (Heat Systems-Ultrasonic Inc. Plainview) and the whole extract obtained was used for Western blot. 30 µg of protein were run on 10% SDS–PAGE gel and transferred to Amersham Hybond-ECL nitrocellulose membrane (GE healthcare), according to the manufacturer's instructions. […] The signal was detected with the Western Lightning Plus-ECL (PerkinElmer).

[8] = system: pADPr formation in human cells; design: method as in earlier work; settings: cited from earlier work
[9] = read-out: TcPARP pIC50±SE (converted)

Chain of TcPARP (Trypanosoma cruzi, UniProt Q4PQV7) (Q4PQV7 1-592): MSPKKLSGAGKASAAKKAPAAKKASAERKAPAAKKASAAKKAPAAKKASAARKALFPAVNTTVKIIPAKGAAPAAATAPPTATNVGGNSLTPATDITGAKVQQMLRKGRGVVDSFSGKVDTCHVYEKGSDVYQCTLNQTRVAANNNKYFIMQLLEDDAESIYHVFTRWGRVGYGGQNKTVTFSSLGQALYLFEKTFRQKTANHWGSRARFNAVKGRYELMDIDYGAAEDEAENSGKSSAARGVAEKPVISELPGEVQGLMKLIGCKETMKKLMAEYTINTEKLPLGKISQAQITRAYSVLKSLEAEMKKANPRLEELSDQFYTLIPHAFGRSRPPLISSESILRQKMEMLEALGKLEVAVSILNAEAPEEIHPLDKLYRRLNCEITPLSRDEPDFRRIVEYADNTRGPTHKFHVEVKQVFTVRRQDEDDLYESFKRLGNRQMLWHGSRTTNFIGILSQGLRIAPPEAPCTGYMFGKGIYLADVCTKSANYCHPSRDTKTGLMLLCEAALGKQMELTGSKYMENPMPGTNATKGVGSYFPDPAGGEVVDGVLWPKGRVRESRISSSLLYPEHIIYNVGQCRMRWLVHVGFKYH

Row | SMILES | IC50 (TcPARP [2]; read-out: TcPARP IC50) [nM] | IC50 (TcPARP [2]; [9]) [nM] | IC50 (hPARP-1) [nM] | further results
1 | CC1(C)CCC2=C(O1)c1ccccc1C(=O)C2=O [β-lapachone] | – | – | – | effect on epimastigote growth (T. cruzi epimastigotes [1]; 2.5 µM): small effect
2 | O=C(c1cc(Cc2n[nH]c(=O)c3ccccc23)ccc1F)N1CCN(C(=O)C2CC2)CC1 [Olaparib, 4-({3-[(4-cyclopropanecarbonylpiperazin-1-yl)carbonyl]-4-fluorophenyl}methyl)-1,2-dihydrophthalazin-1-one] | 3.4 | 3.39 | – | decrease in growth of the parasites (T. cruzi epimastigotes [1]; 25 nM): 50%; effect on epimastigote growth (T. cruzi epimastigotes [1]; 25 nM): diminished epimastigote growth significantly; number of trypomastigotes in the supernatant ([3]; 25 nM): no significant difference; number of amastigotes per cell ([3]; 25 nM in growth medium): decrease in the number of amastigotes per cell; % of Infected Cells, Day 2 ([3]; Olaparib 25 nM, mean±SD): 38.67±7.68%; % of Infected Cells, Day 4 ([3]; Olaparib 25 nM, mean±SD): 13.54±3.40 %; % of Infected Cells, Day 6 ([3]; Olaparib 25 nM, mean±SD): 22.03±2.36 %; growth of uninfected Vero cells (Vero cells): did not alter the growth of the cell line; number of amastigotes per cell ([4]; day 6 post-infection): markedly decreased; number of trypomastigotes in the growth medium ([4]; day 9 post-infection): no significant difference
3 | CNCc1ccc(-c2[nH]c3cc(F)cc4c3c2CCNC4=O)cc1 [Rucaparib, 6-fluoro-2-{4-[(methylamino)methyl]phenyl}-3,10-diazatricyclo[6.4.1.0^{4,13}]trideca-1,4(13),5,7-tetraen-9-one] | 25 | 25.7 | – | –
4 | NC(=O)c1cccc(N)c1 [Compound 3-AB, 3-aminobenzamide] | 26000 | 26300 | 33000 | reduction of parasite growth compared to the control (T. cruzi epimastigotes [1]; 660 µM): approximately 60%; reduction of parasite growth compared to the control (T. cruzi epimastigotes [1]; 6.6 mM): approximately 60%; effect on T. cruzi epimastigote growth (T. cruzi epimastigotes [5]): able to reduce T. cruzi epimastigote growth; inhibition of differentiation of amastigotes to trypomastigotes (T. cruzi amastigotes): to a lesser extent
5 | COc1cccc(C(N)=O)c1 [3-methoxybenzamide] | – | – | – | inhibition of differentiation of amastigotes to trypomastigotes (T. cruzi amastigotes): able to inhibit differentiation of amastigotes to trypomastigotes
6 | CC1CS(=O)(=O)CCN1/N=C/c1ccc([N+](=O)[O-])o1 (centres unmarked) [Nifurtimox] | – | – | – | effect on epimastigote growth (T. cruzi epimastigotes [1]; 2.5 µM): small effect
7 | O=c1[nH]c2ccccc2c2ccccc12 [Phenanthridinone, 5,6-dihydrophenanthridin-6-one] | 1600 | 1620 | 560 | –
8 | NC(=O)c1cccc2ncc(-c3ccc(Cl)cc3)nc12 [CNQ, 3-(4-chlorophenyl)quinoxaline-5-carboxamide] | 170 | 174 | 33 | –
9 | Cn1cccc1/C=C1\C(=O)NC(=O)c2ccccc21 [BYK204165, (4Z)-4-[(1-methyl-1H-pyrrol-2-yl)methylidene]-1,2,3,4-tetrahydroisoquinoline-1,3-dione] | 180 | – | 45 | TcPARP pIC50±SE (TcPARP [2]): 6.74±0,090
10 | C[C@]1(c2nc3c(C(N)=O)cccc3[nH]2)CCCN1 [Veliparib, 2-[(2R)-2-methylpyrrolidin-2-yl]-1H-1,3-benzodiazole-4-carboxamide] | 83 | 83.2 | – | Ki (hPARP-1): 5 nM
11 | CN(C)CC(=O)Nc1ccc2[nH]c(=O)c3ccccc3c2c1 [PJ-34, 2-(dimethylamino)-N-(6-oxo-5,6-dihydrophenanthridin-2-yl)acetamide] | 230 | 224 | – | –
12 | Cc1nc2c(c(=O)[nH]1)CSCC2 [DR2313, 2-methyl-1H,4H,5H,7H,8H-thiopyrano[4,3-d]pyrimidin-4-one] | 1400 | 1380 | – | –
13 | Nc1ncnc2c1ncn2[C@@H]1O[C@H](C(=O)N2CCN(CC(=O)Nc3cccc4c3CNC4=O)CC2)[C@@H](O)[C@H]1O [EB-47, 2-(4-{[(2S,3S,4R,5R)-5-(6-amino-9H-purin-9-yl)-3,4-dihydroxyoxolan-2-yl]carbonyl}piperazin-1-yl)-N-(1-oxo-2,3-dihydro-1H-isoindol-4-yl)acetamide] | – | – | 45 | selectivity for TcPARP over hPARP-1 (TcPARP [6]): approximately five-fold; inhibition of pADPr formation in parasites ([7]; 43 nM): did not inhibit TcPARP at all; inhibition of pADPr formation in human cells [8]: inhibit pADPr formation
14 | Oc1nc(C2CC2)nc2c1CSCC2 [RF03876, 2-cyclopropyl-5H,7H,8H-thiopyrano[4,3-d]pyrimidin-4-ol] | 1300 | 1260 | – | –
15 | Nc1ccc2c3c(cccc13)C(=O)NC2=O [Compound 4-ANI, 8-amino-3-azatricyclo[7.3.1.0^{5,13}]trideca-1(12),5,7,9(13),10-pentaene-2,4-dione] | 43 | 42.7 | 22 | inhibition of pADPr formation in parasites ([7]; 215 nM): did not show complete inhibition
